In paper PMC4129175, “HPLC-Fingerprints and Antioxidant Constituents of Phyla nodiflora” (The Scientific World Journal, 2014):
pKi: −log10 of the molar value. Where two headings read alike, the source gives them in different places.

Experiments:
[1] = DPPH radical (DPPH∙) scavenging assay; details: concentration that scavenges 50% radicals; mean ± SD, n = 3
Method: In the DPPH radical (DPPH^∙) scavenging assay, fifty microliters of samples of various concentrations were mixed with 150 μl of DPPH^∙ solution (0.1 mM) dissolved in methanol. Each mixture was allowed to stand for 30 min and measured at 517 nm using a multiplate spectrophotometer (μQuant, Bio-Tek, USA). The scavenging ability was calculated using the following formula: (1) Scavenging ability (%) =(1−sample absorbance/control absorbance)×100%.

[2] = ABTS cation radical (ABTS∙+) decolorization/scavenging assay; details: concentration that scavenges 50% radicals; mean ± SD, n = 3
Method: The ABTS decolorization assay was performed as described, with slight modification. The ABTS cation radical (ABTS^∙+) was produced by reacting 7 mM stock solution of ABTS with 2.45 mM potassium persulfate (final concentration) and allowing the mixture to stand in the dark for 6–8 h at room temperature before use. The ABTS^∙+ solution was diluted to an absorbance of 0.7 ± 0.02 at 734 nm. Thirty microliters of samples of different concentrations were mixed with 170 μl of ABTS^∙+ working solution under a dark condition and shaken for 15 s. The absorbance was measured at 734 nm after 20 min. The scavenging capacity was calculated using the same formula as for the DPPH radical scavenging assay.

[3] = Superoxide anion radical (O2∙−) scavenging assay (xanthine/xanthine oxidase, NBT); type: biochemical; details: concentration that scavenges 50% radicals; mean ± SD, n = 3
Method: (§1) The procedures of O2 ^∙− scavenging activity and mushroom tyrosinase inhibitory effect were performed as previous report. In the O2 ^∙− scavenging assay, xanthine (0.1 mM, 15 μl) in 50 mM phosphate buffer (pH 7.4), NBT (25 μM, 16 μl), EDTA (0.1 μM, 14 μl), and 100 μl of various concentrations of test compounds were mixed in the 96-well plates. Reactions were initiated by adding 0.5 U xanthine oxidase. After 30 min, the absorbance of each mixture was measured at 540 nm. In the mushroom tyrosinase inhibitory assay, L-tyrosine (2 mM, 80 μl) in 50 mM phosphate buffer (pH 6.5) and various concentrations of test compounds (100 μl) were added to 96-well plates. After 10 min incubation, 20 U mushroom tyrosinase was added to start the reaction. The absorbance of each mixture was measured at 490 nm after 30 min incubation. The O2 ^∙− scavenging capacity and the percentage inhibition of mushroom tyrosinase were calculated using the same formula as for the DPPH radical scavenging assay.

[4] = design: method as in Lan et al. 2013 [15]; details: positive control; ref Lan et al. 2013 [15]; cited from earlier work
[5] = design: method as in Lan et al. 2013 [15]; details: positive control; ref Lan et al. 2013 [15]; cited from earlier work; remark: listed apart in the source
[6] = design: method as in Lan et al. 2013 [15]; details: positive control; ref Lan et al. 2013 [15]; cited from earlier work; remark: listed apart in the source
[7] = target: mushroom tyrosinase (Agaricus bisporus, UniProt C7FF04); test: Lineweaver-Burk kinetic study of tyrosinase inhibition; type: biochemical; details: Lineweaver-Burk plot, various concentrations of tyrosine
Method: as §1
(§2) This study used Lineweaver-Burk plots to determine the inhibitory mode of test samples [15]. The kinetic study was performed in the presence or absence of test samples with various concentrations of tyrosine or xanthine as the substrate.
Figure 2 Lineweaver-Burk plot of tyrosinase inhibition of (a) onopordin (4) and (b) eupafolin (7) with various concentrations of tyrosine. […]

[8] = target: T1, xanthine oxidase (XO) (Bos taurus, UniProt P80457); test: Lineweaver-Burk kinetic study of xanthine oxidase inhibition; type: biochemical; details: for pKi / Vmax (xanthine oxidase): xanthine as substrate
T1 construct: purchased Sigma-Aldrich; host or cells: buttermilk
Method: as §1, §2
Figure 1 Lineweaver-Burk plot of xanthine oxidase inhibition of eupafolin (7) with various concentrations of xanthine. (×) Without eupafolin, (▲) 5 μM of eupafolin, (●) 10 μM of eupafolin, and (○) 20 μM of eupafolin. Data are presented as mean ± SD of three independent experiments.

T1 sequence (P80457 whole entry): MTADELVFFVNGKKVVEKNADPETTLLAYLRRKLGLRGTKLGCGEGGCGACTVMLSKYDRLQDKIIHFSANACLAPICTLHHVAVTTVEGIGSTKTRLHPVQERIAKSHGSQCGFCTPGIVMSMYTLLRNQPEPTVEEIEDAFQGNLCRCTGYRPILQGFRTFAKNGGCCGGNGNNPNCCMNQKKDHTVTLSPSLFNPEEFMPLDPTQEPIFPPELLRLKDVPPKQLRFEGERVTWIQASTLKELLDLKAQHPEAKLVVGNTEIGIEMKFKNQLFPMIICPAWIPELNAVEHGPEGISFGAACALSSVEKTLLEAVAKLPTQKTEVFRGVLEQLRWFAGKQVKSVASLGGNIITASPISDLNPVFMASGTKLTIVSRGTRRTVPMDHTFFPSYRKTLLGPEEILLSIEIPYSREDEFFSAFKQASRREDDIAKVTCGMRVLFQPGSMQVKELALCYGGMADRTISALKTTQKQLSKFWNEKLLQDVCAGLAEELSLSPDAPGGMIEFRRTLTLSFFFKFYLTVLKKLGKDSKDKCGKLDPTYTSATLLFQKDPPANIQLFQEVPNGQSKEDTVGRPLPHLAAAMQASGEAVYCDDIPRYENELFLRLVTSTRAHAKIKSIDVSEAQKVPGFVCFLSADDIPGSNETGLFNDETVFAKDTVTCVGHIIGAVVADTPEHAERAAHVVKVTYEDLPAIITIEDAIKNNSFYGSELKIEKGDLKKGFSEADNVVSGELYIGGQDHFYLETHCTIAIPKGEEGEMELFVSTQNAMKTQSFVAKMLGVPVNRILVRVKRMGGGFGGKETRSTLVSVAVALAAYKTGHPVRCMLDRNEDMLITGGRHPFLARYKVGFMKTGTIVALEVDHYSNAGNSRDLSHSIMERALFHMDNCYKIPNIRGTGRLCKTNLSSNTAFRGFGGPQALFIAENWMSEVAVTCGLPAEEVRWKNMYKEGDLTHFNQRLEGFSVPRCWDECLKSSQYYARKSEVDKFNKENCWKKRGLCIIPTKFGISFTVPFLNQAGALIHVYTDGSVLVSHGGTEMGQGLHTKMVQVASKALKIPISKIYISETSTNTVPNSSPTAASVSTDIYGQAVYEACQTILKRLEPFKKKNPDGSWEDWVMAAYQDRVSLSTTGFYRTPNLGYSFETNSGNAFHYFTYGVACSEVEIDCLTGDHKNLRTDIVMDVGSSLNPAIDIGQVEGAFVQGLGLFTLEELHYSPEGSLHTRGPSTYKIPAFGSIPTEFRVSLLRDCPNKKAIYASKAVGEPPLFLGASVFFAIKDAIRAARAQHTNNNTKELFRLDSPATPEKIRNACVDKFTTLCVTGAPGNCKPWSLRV
mushroom tyrosinase, sequence (C7FF04 1-392): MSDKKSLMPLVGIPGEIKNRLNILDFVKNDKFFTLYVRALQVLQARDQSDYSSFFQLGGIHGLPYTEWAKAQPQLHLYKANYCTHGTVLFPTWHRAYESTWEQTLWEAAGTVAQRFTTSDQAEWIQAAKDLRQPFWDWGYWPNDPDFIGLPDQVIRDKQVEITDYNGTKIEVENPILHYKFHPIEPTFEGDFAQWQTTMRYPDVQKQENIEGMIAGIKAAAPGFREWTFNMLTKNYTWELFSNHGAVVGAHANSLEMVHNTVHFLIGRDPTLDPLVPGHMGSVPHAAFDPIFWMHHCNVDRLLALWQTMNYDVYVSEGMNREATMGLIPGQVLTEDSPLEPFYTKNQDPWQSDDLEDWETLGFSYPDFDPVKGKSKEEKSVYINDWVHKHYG
mushroom tyrosinase, sequence (G1K3P4 entry or part of it, further chain): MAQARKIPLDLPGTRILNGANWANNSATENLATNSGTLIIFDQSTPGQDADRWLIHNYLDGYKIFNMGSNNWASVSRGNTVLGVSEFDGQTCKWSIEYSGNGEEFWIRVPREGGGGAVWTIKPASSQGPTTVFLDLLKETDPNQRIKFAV

SMILES | DPPH∙ SC50 [1] [µM] | ABTS∙+ SC50 [2] [µM] | O2∙− SC50 [3] [µM] | also measured
COc1cc(-c2cc(=O)c3c(O)cc(O)c(O)c3o2)ccc1O [Compound 6, 5,7,8,4′-tetrahydroxy-3′-methoxyflavone] | >300 | >300 | 34.6 ± 2.4 | –
O=c1cc(-c2ccc(O)cc2)oc2cc(O)cc(O)c12 [Apigenin] | – | – | – | DPPH∙ SC50 [4]: >300 µM; ABTS∙+ SC50 [5]: 159.6 ± 4.4 µM; O2∙− SC50 [6]: 81.3 ± 2.0 µM
COc1c(O)cc(O)c2c(=O)cc(-c3ccc(O)c(O)c3)oc12 [Compound 4, onopordin] | 24.7 ± 1.2 | 53.7 ± 3.9 | 23.5 ± 0.5 | Inhibitory mode on tyrosinase [7]: mixed-type inhibitor
COc1c(O)cc2oc(-c3ccc(O)cc3)cc(=O)c2c1O [Compound 8, hispidulin] | 57.5 ± 2.7 | 55.3 ± 3.8 | – | –
COc1cc2oc(-c3ccc(O)c(O)c3)cc(=O)c2c(O)c1OC [Compound 5, cirsiliol] | 21.8 ± 1.2 | 58.4 ± 2.7 | 10.7 ± 1.3 | –
COc1c(O)cc(O)c2c(=O)cc(-c3ccc(O)cc3)oc12 [Compound 3, 4′-hydroxywogonin] | >300 | >300 | 59.9 ± 2.1 | –
O=C1O[C@H]([C@@H](O)CO)C(O)=C1O [Vit. C, L-Ascorbic acid, reference compound] | 64.6 ± 4.4 | 49.9 ± 2.1 | 23.5 ± 1.7 | –
COc1cc(-c2cc(=O)c3c(O)c(O)c(O)cc3o2)ccc1O [Compound 2, nodifloretin] | 198.2 ± 3.8 | 62.2 ± 2.5 | 42.3 ± 1.5 | –
COc1c(O)cc2oc(-c3ccc(O)c(O)c3)cc(=O)c2c1O [Compound 7, eupafolin] | 24.1 ± 0.4 | 30.5 ± 1.2 | 8.3 ± 0.4 | pKi ([8]; 7 at 5 μM): 5.35; Vmax (xanthine oxidase) ([8]; 7 at 5 μM): 3.6 × 10^−2 ΔO.D./min; pKi ([8]; 7 at 10 μM): 5.30; Vmax (xanthine oxidase) ([8]; 7 at 10 μM): 3.2 × 10^−2 ΔO.D./min; pKi ([8]; 7 at 20 μM): 5.05; Vmax (xanthine oxidase) ([8]; 7 at 20 μM): 3.1 × 10^−2 ΔO.D./min; Inhibitory mode on xanthine oxidase ([8]; Lineweaver-Burk plot, various concentrations of xanthine): mixed-type inhibitor; Inhibitory mode on tyrosinase [7]: competitive inhibitor
